{"source": "patent US20230355506A1", "about": "“ACTIVE INGREDIENT COMPLEX FOR COSMETIC PREPARATIONS” (LA PRAIRIE GROUP AG, priority 2022, published 2023)"}
{"test_system": "collagen I A2", "experiment": "ELISA for collagen1A2 in ECM isolated from cultured hypodermis explants after 10 days of treatment", "type": "cell-based, human", "settings": "additions (extract solvents/additives) alone", "protocol": "The hypodermis was prepared and weighed out into approximately 200 mg pieces. The tissue was cultured in a submersed state in defined and serum-free hypodermis tissue culture medium (CB-EM-HYP) in an actively humidified biomedical incubator (Memmert, Germany) at 37° C. and 5% CO2.\nOvernight cultivation was followed by substitution with fresh tissue culture medium. Explants were cultivated either in the presence or absence of test samples.\nOver a period of 10 days, the medium was replaced daily with freshly supplemented test samples or with normal media without test samples.\nAfter 10 days of treatment, a portion of the tissue samples was processed for the extraction of ECM proteins.\nIsolated ECM was subjected to a protein estimation in accordance with the BCA method (Bicinchoninic Acid) (Sigma Aldrich), and ELISAs (Biotechne) corresponding to the antigen collagen1A2 were performed according to the manufacturer's protocol using the same amounts of proteins as were estimated from the BCA assay. A sensitive filter-based microplate reader (Accuris, USA) was used to perform readout.\nThe following test samples were investigated: • A. Glycolic caviar extract containing approx. 6% fish egg material, 10% water and propylene glycol ad 100. […] Lipophilic caviar extract containing 40% fish egg material, 0.02% tocopherol, 1% by weight phenoxyethanol and triglycerides ad 100. This extract was obtained from an extraction with triglycerides and phenoxyethanol of a homogenizate from fish eggs of Acipenser baerii. […] The proportion of sodium mannose 6-phosphate is 2.5% by weight. The proportion of mannose is 2.5% by weight."}
{"smiles": "OCC(O)CO", "note": "[glycerol]", "Increase in the expression of collagen I by the additions alone": "do not show any increase"}
{"smiles": "O=C(O)[C@@H](O)[C@H](O)[C@H](O)[C@@H](O)C(=O)O", "note": "[galactaric acid]", "Increase in the expression of collagen I by the additions alone": "do not show any increase"}
{"smiles": "CC(O)CO", "note": "(stereo not shown) [propylene glycol]", "Increase in the expression of collagen I by the additions alone": "do not show any increase"}
{"smiles": "O", "note": "[water]", "Increase in the expression of collagen I by the additions alone": "do not show any increase"}
